Where two headings read alike, the source gives them in different places.
Assays:
[1] = tested on: U266 (multiple myeloma) cells; assay: CellTiter-Blue cell viability assay, U266; assay type: cell-based; conditions: Homo sapiens, U-266; 72 hours of treatment
Protocol: (§1) Method for Measurement of Cell Viability
(§2) The CellTiter-Blue® Cell Viability Assay (Promega) provides a homogeneous, fluorometric method for estimating the number of viable cells present in multi-well plates. The assay uses the indicator dye resazurin to measure the metabolic capacity of cells. Viable cells retain the ability to reduce resazurin into resorufin, which is highly fluorescent.
(§3) Stock solutions (10 mM in DMSO) of compounds were serially diluted 1:2 in 11 concentrations. 50 nL/well (10 mM compound stock in DMSO) was acoustically dispensed in 384-well assay plates with an acoustic dispenser (EDC Biosystems ATS-100AV). Final starting concentration in the assay was 20 μM (0.2% DMSO) for test compounds. The following cell-lines (and origin) have been primarily used: PaCa2 (pancreatic), U266 (multiple myeloma), AMO-1 (plasmacytoma), and MDA-MB-231 (breast adenocarcinoma). PBMCs (peripheral blood mononuclear cells) from healthy donors were used as control cells. Cells were seeded in assay plates (384-well black/clear, Greiner #781091) pre-dispensed with compounds, 25 μL/well, and cultured for 72 hours. After 72 hours, Celltiter Blue reagent (Promega # G8081) was diluted 1:10 with PBS and then added to wells (5 μL/well). The plates were incubated for 2 hours following addition of reagent. The plates were read in an EnVision fluorescence reader (PerkinElmer) with Ex544 nm/Em590 nm. Results were calculated as % cell viability compared to background (cells treated with 0.2% DMSO).

[2] = tested on: PaCa2 (pancreatic) cells; assay: CellTiter-Blue cell viability assay, PaCa2; assay type: cell-based; conditions: PaCa-2; 72 hours of treatment
Protocol: as §1, §2, §3

[3] = tested on: MDA-MB-231 (breast adenocarcinoma) cells; assay: CellTiter-Blue cell viability assay, MDA-MB-231; assay type: cell-based; conditions: Homo sapiens, 72 hours of treatment
Protocol: as §1, §2, §3

[4] = tested on: PBMCs (peripheral blood mononuclear cells) from healthy donors; assay: CellTiter-Blue cell viability assay, healthy PBMC; assay type: cell-based; conditions: 72 hours of treatment
Protocol: as §1, §2, §3

[5] = tested on: AMO-1 (plasmacytoma) cells; assay: CellTiter-Blue cell viability assay, AMO-1; assay type: cell-based; conditions: Homo sapiens, AMO1; 72 hours of treatment
Protocol: as §1, §2, §3

[6] = target: HDAC6 (Homo sapiens (Human), UniProt Q9UBN7); assay: HDAC6 in vitro enzymatic assay (fluorescence); assay type: biochemical
HDAC6, sequence (Q9UBN7 whole entry): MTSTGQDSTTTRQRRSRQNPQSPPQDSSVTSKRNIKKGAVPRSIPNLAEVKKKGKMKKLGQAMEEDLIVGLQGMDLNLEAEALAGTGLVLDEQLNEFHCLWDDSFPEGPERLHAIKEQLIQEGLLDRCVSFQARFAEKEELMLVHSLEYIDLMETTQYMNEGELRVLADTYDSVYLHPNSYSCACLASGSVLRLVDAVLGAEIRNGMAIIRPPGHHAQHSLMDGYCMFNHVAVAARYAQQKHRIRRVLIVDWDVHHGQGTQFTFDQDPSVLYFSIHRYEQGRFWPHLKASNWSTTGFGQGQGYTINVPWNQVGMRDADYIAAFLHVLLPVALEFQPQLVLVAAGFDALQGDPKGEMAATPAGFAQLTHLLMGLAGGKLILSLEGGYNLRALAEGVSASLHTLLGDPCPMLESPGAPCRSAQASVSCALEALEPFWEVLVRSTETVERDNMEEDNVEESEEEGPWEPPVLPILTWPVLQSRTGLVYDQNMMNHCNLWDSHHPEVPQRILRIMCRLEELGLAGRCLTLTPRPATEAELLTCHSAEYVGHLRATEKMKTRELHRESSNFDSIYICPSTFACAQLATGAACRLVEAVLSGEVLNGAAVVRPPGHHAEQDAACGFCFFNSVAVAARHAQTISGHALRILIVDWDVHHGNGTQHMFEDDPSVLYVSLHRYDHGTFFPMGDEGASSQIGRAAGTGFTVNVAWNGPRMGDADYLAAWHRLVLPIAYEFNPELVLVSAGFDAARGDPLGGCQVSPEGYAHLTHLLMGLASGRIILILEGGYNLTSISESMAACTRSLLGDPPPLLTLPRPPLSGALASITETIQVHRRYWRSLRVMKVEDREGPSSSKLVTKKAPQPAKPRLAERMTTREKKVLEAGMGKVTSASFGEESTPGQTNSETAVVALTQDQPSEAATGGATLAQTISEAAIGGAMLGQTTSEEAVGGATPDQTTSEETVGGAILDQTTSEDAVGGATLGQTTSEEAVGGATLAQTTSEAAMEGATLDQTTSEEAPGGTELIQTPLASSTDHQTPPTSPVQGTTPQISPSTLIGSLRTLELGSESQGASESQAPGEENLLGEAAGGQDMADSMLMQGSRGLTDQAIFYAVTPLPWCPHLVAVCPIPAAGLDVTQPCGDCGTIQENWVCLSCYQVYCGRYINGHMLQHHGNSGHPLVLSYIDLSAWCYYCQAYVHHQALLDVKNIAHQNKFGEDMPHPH
Outline: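 Fluorogenic HDAC substrate reactions contained assay buffer, BSA and compound, followed by developer. Fluorescence was read at ex 360/em 460 nm. Compounds were tested as 11-point 1:3 dilutions from a top of 200 μM for HDAC1, 2 and 3, and from 2 μM for HDAC6, in duplicate.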

[7] = target: HDAC2 (Homo sapiens (Human), UniProt Q92769); assay: HDAC2 in vitro enzymatic assay (fluorescence); assay type: biochemical; conditions: Table 4 selectivity profiling
HDAC2, sequence (Q92769 whole entry): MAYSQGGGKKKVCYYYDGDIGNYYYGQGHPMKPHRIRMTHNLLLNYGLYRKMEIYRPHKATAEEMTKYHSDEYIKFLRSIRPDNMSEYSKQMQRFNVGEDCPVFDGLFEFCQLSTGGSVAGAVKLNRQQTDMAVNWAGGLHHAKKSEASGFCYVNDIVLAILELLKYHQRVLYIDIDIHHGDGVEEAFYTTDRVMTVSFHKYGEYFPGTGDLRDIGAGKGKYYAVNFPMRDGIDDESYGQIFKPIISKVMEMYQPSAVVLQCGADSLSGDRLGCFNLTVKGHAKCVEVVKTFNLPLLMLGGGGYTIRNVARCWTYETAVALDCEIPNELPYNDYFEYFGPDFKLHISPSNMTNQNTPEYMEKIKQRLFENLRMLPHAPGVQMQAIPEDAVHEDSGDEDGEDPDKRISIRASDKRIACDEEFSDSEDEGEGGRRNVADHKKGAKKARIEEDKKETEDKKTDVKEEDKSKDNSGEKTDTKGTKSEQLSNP
Protocol: (§4) Biological Tests Method for Measurement of Enzymatic Activity of HDACs Materials & Methods
(§5) All Examples were tested in HDAC1,2,3,6 and 8 in vitro enzymatic assays. The assay principle is well known (Hauser et al. 2009, Bradner et al. 2010) and all necessary reagents like enzymes, substrates, developer and reference compounds are commercially available (see e.g. BPS Biosciences http://www.bpsbioscience.com/). Stock solutions (10 mM in DMSO) of compounds were serially diluted 1:3 in 11 concentrations with a top concentration of 200 μM for HDAC1,2,3 and 2 μM for HDAC6 and HDAC8. The enzymatic reactions were conducted in a mixture containing assay buffer, bovine serum albumin, HDAC substrate, and a test compound. After enzymatic reaction, developer was added and after an additional incubation time, fluorescence intensity was measured at an excitation wavelength of 360 nm and an emission wavelength of 460 nm. All experiments were performed in duplicate.

[8] = target: HDAC3 (Homo sapiens (Human), UniProt O15379); assay: HDAC3 in vitro enzymatic assay (fluorescence); assay type: biochemical; conditions: Table 4 selectivity profiling
HDAC3, sequence (O15379 whole entry): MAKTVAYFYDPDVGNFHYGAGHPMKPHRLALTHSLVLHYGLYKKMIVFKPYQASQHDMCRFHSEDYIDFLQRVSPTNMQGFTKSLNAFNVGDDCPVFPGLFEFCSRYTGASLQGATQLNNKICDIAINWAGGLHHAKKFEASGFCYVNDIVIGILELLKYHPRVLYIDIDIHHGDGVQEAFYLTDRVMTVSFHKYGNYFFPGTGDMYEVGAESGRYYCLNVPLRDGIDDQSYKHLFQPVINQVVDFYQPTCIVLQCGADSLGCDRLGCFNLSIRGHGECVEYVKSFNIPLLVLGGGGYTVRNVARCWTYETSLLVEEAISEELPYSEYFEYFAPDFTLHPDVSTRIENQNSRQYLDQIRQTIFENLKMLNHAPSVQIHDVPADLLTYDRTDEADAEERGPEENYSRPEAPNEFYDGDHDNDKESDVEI
HDAC3, sequence (Q9Y618 395-489 partner): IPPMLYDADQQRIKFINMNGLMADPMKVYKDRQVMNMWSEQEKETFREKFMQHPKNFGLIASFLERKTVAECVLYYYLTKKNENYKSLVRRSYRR
Protocol: as §4, §5

[9] = target: HDAC8 (Homo sapiens (Human), UniProt Q9BY41); assay: HDAC8 in vitro enzymatic assay (fluorescence); assay type: biochemical; conditions: Table 4 selectivity profiling
HDAC8, sequence (Q9BY41 whole entry): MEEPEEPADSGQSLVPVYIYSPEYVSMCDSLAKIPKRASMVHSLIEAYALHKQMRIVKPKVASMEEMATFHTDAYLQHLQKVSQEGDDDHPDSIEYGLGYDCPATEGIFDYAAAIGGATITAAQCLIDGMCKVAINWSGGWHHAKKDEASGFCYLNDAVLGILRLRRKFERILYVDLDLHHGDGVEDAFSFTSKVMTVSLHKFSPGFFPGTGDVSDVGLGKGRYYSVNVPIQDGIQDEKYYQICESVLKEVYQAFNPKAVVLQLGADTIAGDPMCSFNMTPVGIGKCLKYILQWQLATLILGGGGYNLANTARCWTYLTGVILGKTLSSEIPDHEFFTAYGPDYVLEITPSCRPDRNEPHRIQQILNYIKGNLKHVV
Protocol: as §4, §5

[10] = target: HDAC1 (Homo sapiens (Human), UniProt Q13547); assay: HDAC1 in vitro enzymatic assay (fluorescence); assay type: biochemical; conditions: Table 4 selectivity profiling
HDAC1, sequence (Q13547 whole entry): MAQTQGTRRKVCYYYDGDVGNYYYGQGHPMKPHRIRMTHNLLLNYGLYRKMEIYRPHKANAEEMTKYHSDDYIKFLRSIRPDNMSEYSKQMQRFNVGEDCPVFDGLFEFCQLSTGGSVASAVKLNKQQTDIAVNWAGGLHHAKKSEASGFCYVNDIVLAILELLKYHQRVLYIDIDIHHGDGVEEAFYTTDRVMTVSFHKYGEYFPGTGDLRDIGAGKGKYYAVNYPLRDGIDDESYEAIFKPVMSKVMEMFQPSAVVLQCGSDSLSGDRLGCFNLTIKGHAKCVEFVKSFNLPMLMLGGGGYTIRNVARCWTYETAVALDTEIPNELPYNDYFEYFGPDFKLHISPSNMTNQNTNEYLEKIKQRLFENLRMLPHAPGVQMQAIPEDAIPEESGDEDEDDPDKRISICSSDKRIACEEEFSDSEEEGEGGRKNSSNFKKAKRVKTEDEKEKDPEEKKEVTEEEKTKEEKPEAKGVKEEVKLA
Protocol: as §4, §5

[11] = Table 3, read-out: IC50 (nM) for inhibition of HDAC6
[12] = Table 4 selectivity profiling, read-out: IC50 (nM) HDAC6

| IC50 [1] [µM] | IC50 [3] [µM] | IC50 [5] [µM] | IC50 [6, 11] [nM] | IC50 [7] [nM] | IC50 [8] [nM] | IC50 [9] [nM] | IC50 [10] [nM] | IC50 [6, 12] [nM] | Structure (SMILES) | IC50 [2] [µM] | IC50 [4] [µM] |
| --- | --- | --- | --- | --- | --- | --- | --- | --- | --- | --- | --- |
| 0.58 | 1.2 | 0.46 | 7 |  |  |  |  |  | CC(C)c1ccc(-c2cc3ccc(C(=O)NO)cc3o2)cc1 [Example 112, N-Hydroxy-2-[4-(1-methylethyl)phenyl]-1-benzofuran-6-carboxamide] | 0.89 | > 20 |
| 0.64 | 0.41 | 0.47 | 70 |  |  |  |  |  | O=C(NO)c1ccc2sc(-c3ccc(OC(F)(F)F)cc3)cc2c1 [Example 102, N-hydroxy-2-[4-(trifluoromethoxy)phenyl]-1-benzothiophene-5-carboxamide] | 2.48 | > 20 |
| 0.89 | 3.1 | 0.62 |  | > 200000 | 820 | > 2000 | > 200000 | 3 | COc1ccc(-c2ccc(-c3nc4cc(C(=O)NO)ccc4o3)cc2)cn1 [Example 27, N-hydroxy-2-[4-(6-methoxypyridin-3-yl)phenyl]-1,3-benzoxazole-5-carboxamide] | 0.81 | > 20 |
| 0.48 | 1.8 | 0.34 |  | 9400 | 930 | 410 | 1800 | 22 | CC(C)(C)c1ccc(-c2nc3cc(C(=O)NO)ccc3s2)cc1 [Example 77, 2-(4-tert-butylphenyl)-N-hydroxy-1,3-benzothiazole-5-carboxamide] | 1.4 | > 20 |
| 1.1 | 1.7 | 0.61 | 5 |  |  |  |  |  | COc1ccncc1-c1ccc(-c2nc3cc(C(=O)NO)ccc3o2)cc1 [Example 26, N-hydroxy-2-[4-(4-methoxypyridin-3-yl)phenyl]-1,3-benzoxazole-5-carboxamide] | 1.1 | > 20 |
| 0.91 | 1.4 | 0.9 |  | 76000 | 1700 | 800 | 6000 | 38 | O=C(NO)c1ccc2oc(-c3ccc(OC(F)(F)F)cc3)nc2c1 [Example 9, N-hydroxy-2-[4-(trifluoromethoxy)phenyl]-1,3-benzoxazole-5-carboxamide] | 1.9 | > 20 |
| 0.58 | 0.81 | 0.5 | 28 |  |  |  |  |  | O=C(NO)c1ccc2sc(-c3cccc(C(F)(F)F)c3)cc2c1 [Example 90, N-hydroxy-2-[3-(trifluoromethyl)phenyl]-1-benzothiophene-5-carboxamide] | 0.8 | > 20 |
| 0.43 | 0.81 | 0.44 | 55 | 90000 | 90000 | > 2000 | 100000 | 26 | CC(C)c1ccc(-c2cc3cc(C(=O)NO)ccc3s2)cc1 [Example 89, N-Hydroxy-2-[4-(1-methylethyl)phenyl]-1-benzothiophene-5-carboxamide] | 0.68 | > 20 |
| 1.1 | 0.37 | 0.68 |  | > 200000 | 3500 | 200 | 5100 | 51 | CC(C)c1ccc(Nc2nc3cc(C(=O)NO)ccc3o2)cc1 [Example 43, N-hydroxy-2-{[4-(1-methylethyl)phenyl]amino}-1,3-benzoxazole-5-carboxamide] | 1.7 | > 20 |
| 0.94 | 1.1 | 0.64 | 28 | > 200000 | 1800 | 700 | 5600 | 28 | O=C(NO)c1ccc2oc(-c3ccc(-c4ccccc4F)cc3)nc2c1 [Example 21, 2-(2′-Fluorobiphenyl-4-yl)-N-hydroxy-1,3-benzoxazole-5-carboxamide] | 1.2 | > 20 |
| 0.49 | 0.81 | 0.38 | 5 | 19000 | 410 | 1000 | 1100 | 5 | CC(C)(C)c1ccc(-c2nc3cc(C(=O)NO)ccc3o2)cc1 [Example 4, 2-(4-tert-butylphenyl)-N-hydroxy-1,3-benzoxazole-5-carboxamide] | 0.75 | > 20 |
| 1.2 | 0.98 | 2.3 |  |  |  |  |  |  | COc1ccc(F)cc1-c1ccc(-c2nc3cc(C(=O)NO)ccc3o2)c(F)c1 [Example 193, 2-(3,5′-difluoro-2′-methoxybiphenyl-4-yl)-N-hydroxy-1,3-benzoxazole-5-carboxamide] | 2.2 | > 20 |
| 0.62 | 0.75 | 0.38 |  | 28000 | 1800 | 700 | 5600 | 28 | COc1ncccc1-c1ccc(-c2nc3cc(C(=O)NO)ccc3o2)cc1 [Example 28, N-hydroxy-2-[4-(2-methoxypyridin-3-yl)phenyl]-1,3-benzoxazole-5-carboxamide] | 1 | > 20 |
| 0.55 | 0.6 | 0.49 |  |  |  |  |  |  | CC(C)(C)c1ccc(-c2cc3cc(C(=O)NO)ccc3s2)cc1 [Example 103, 2-(4-tert-butylphenyl)-N-hydroxy-1-benzothiophene-5-carboxamide] | 1.46 | > 20 |
| 0.49 | 0.4 | 0.41 | 13 | 5500 | 500 | 28 | 900 | 3 | CC(C)c1ccc(-c2nc3cc(C(=O)NO)ccc3s2)cc1 [Example 75, N-Hydroxy-2-[4-(1-methylethyl)phenyl]-1,3-benzothiazole-5-carboxamide] | 1.3 | > 20 |
| 0.42 | 1.1 | 0.36 | 37 | 14000 | 10000 | 1100 | 26000 | 14 | CC(C)c1ccc(-c2cc3ccc(C(=O)NO)cc3s2)cc1 [Example 88, N-Hydroxy-2-[4-(1-methylethyl)phenyl]-1-benzothiophene-6-carboxamide] | 0.82 | > 20 |

Source: patent US10654814B2, “Bicyclic hydroxamic acids useful as inhibitors of mammalian histone deacetylase activity” (KANCERA AB, priority 2015, dated 2020)
